From patent US10822318B2, “Lactone-based probes and methods of use thereof” (REGENTS OF THE UNIVERSITY OF MINNESOTA, priority 2017, dated 2020)

Columns and labels:
PBPs = assay: Gel-based analysis of PBP labeling by β-lactone probes in S. pneumoniae cells; type: cell-based; details: S. pneumoniae whole cells, probe 5 μg/ml, 20 min
Experimental: Strain IU1945, an unencapsulated derivative of serotype 2 S. pneumoniae strain D39, was grown statically in brain heart infusion (BHI) medium in 100×17 mm tubes by incubation in an atmosphere of 5% CO2 at 37° C. to an OD620 of ˜0.2. For labeling experiments, overnight cultures that were still in exponential phase (OD620=0.1-0.4) were diluted to OD620=0.002-0.004 and grown as above. Samples with OD620=0.15-0.20 were utilized in labeling experiments conducted as previously described (Kocaoglu, O, et al. (2013) Curr Protoc Chem Biol 5, 239), and summarized as follows: Cell pellets from 1.5 ml of S. pneumoniae cultures were harvested by centrifugation (16,100×g for 2 min at RT) and washed with phosphate buffered saline (PBS; pH 7.4). […] The protein concentration was measured by NanoDrop 1000 Spectrophotometer (Thermo Scientific) or NanoPhotometer P330 (IMPLEN). […] The protein bands were separated by gel electrophoresis for 1.5 h at 180 V, 400 mA, 60 W. The gel was rinsed with distilled water three times before fluorescence scanning. […]
After SDS-PAGE, labeled proteins were visualized at 50-μm resolution in gels using a Typhoon 9210 gel scanner (Amersham Biosciences) with 580-nm bandpass filter for TAMRA, 526-nm short-pass filter for fluorescein and BODIPY FL, and 670-nm bandpass filter for BODIPY 650/665. All gel images were analyzed using ImageJ software (National Institutes of Health). […]

S. pneumoniae cells = assay: 3D-SIM imaging of lactone probe labeled cells; type: cell-based; details: for late divisional cells showing central septal labeling: untreated, ≈41 cells examined
Experimental: Cells from an overnight culture were diluted to OD620 0.02 in 2 ml of fresh BHI prewarmed to 37° C. and incubated at 37° C. in an atmosphere of 5% CO2. At OD620 0.2, 1.5 ml of culture was added to a microfuge tube and centrifuged at room temperature for 5 min at 16000×g. The supernatant was discarded, the pellet was resuspended in 1 ml room temperature PBS, and the culture was centrifuged a second time. The supernatant was discarded and the pellet was resuspended in either 50 μl of PBS with 5 μg mL^−1 7FL or 100 μl PBS with 5 μg mL^−1 8T. The cells were incubated for 20 min at room temperature in the dark. After incubation the cells were spun and washed with 1 ml of PBS (7FL) or 1 ml of PBS containing 50 mM glucose (8T). The cells were spun a second time and washed with 200 μl of PBS (7FL) or 200 μl of PBS with 50 mM glucose (8T), and finally spun a third time and resuspended in 100 μl of cold (4° C.) GTE buffer (50 mM glucose, 20 mM Tris pH 7.5, 1 mM EDTA). The cells were spun down at 4° C., the supernatant was discarded, and the pellet was resuspended in 15 μl of Vectashield Hardest Antifade (Vector Labs) and kept on ice. 1.2 μl of cells in antifade was pipetted onto a clean coverslip, applied to a slide, and imaged via 3D-SIM. 3D-SIM was performed using the OMX 3D-SIM super-resolution system located in the Indiana University Bloomington Light Microscopy Imaging Center (www.indiana.edu/˜lmic/microscopes/index.html#OMX). The system used is equipped with four Photometrics Cascade II EMCCD cameras that allow simultaneous imaging of up to four colors, and is controlled by DV-OMX software, with image processing by Applied Precision softWoRx 6.0.0 software. Exposure times and % T settings for DAPI, Alexa 488, and Alexa 568 images were 5 ms and 100% for all three channels.
For pre-treatment with methicillin followed by lactone probe labeling, duplicate 2 ml cultures of each strain were created and incubated as described above. At OD620 0.12, methicillin was added to a final concentration of 0.1 μg mL^−1 to one culture for each strain, and the strains were placed back in the incubator. After 20 min, all cultures were harvested, labeled, and imaged as described above.
For labeling of cells with both lactone probes, the following changes were made: After a 20 min incubation with 7FL, the cells were spun down and washed once in 1 ml of PBS. The cells were spun again and resuspended in 100 μl of 8T in PBS at 5 μg mL^−1. The cells were incubated for 20 min at room temperature in the dark, and then washed and imaged as described above for 8T labeling.

(2S,3R)-β-lactone-L-Phe-fluorescein [Probe 7FL]
PBPs labeled (gel-based labeling profile) (PBPs): only PBP1b and PBP2x | late divisional cells showing central septal labeling (S. pneumoniae cells; wild-type): 85% | late divisional cells showing central septal labeling (S. pneumoniae cells; Δpbp1b): 73%

(2S, 3R)-β-lactone-D-Phe-TAMRA [Probe 8T]
PBPs labeled (gel-based labeling profile) (PBPs): PBP1b, PBP2x and PBP2b | cells with labeling excluded from the center of the division site (S. pneumoniae cells; after pre-treatment with 7FL, wild-type and Δpbp1b cells): > 83% | late divisional cells showing central septal labeling (S. pneumoniae cells; wild-type): 80.5% | late divisional cells showing central septal labeling (S. pneumoniae cells; Δpbp1b): 75.6%
